# Results reported in US4684664A, “Derivatives of β-(4-isocyano-1,2,3,4-diepoxycyclopentyl) acrylic acid” (Kureha Kagaku Kogyo Kabushiki Kaisha, priority 1984, dated 1987).
# How the values were obtained:
# Type in all cases: cell-based
# [1] = test system: Staphylococcus aureus FDA 209PJc-1; assay: Antibacterial activity, agar-dilution MIC, organism No. 1; settings: Staphylococcus aureus, FDA209PJC1; Organism No. 1, bouillon-agar; read-out: Minimum Inhibitory Concentration
# In short: (§1)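 MICs were determined by agar dilution on bouillon-agar medium. The value is the minimum concentration of specimen inhibiting growth, expressed as μg/ml of culture medium.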
# [2] = test system: Staphylococcus aureus Terajima; assay: Antibacterial activity, agar-dilution MIC, organism No. 2; settings: Staphylococcus aureus; Organism No. 2, bouillon-agar; read-out: Minimum Inhibitory Concentration
# In short: as §1
# [3] = test system: Staphylococcus aureus MS 353; assay: Antibacterial activity, agar-dilution MIC, organism No. 3; settings: Staphylococcus aureus, MS353; Organism No. 3, bouillon-agar; read-out: Minimum Inhibitory Concentration
# In short: as §1
# [4] = test system: Streptococcus pyogenes Cook; assay: Antibacterial activity, agar-dilution MIC, organism No. 4; settings: Streptococcus pyogenes; Organism No. 4, bouillon-agar; read-out: Minimum Inhibitory Concentration
# In short: as §1
# [5] = test system: Escherichia coli NIHJ-JC-2; assay: Antibacterial activity, agar-dilution MIC, organism No. 5; settings: Escherichia coli, NIHJJC2; Organism No. 5, bouillon-agar; read-out: Minimum Inhibitory Concentration
# In short: as §1
# [6] = test system: Escherichia coli K12 C600 IAM 1264; assay: Antibacterial activity, agar-dilution MIC, organism No. 6; settings: Escherichia coli, IAM1264; Organism No. 6, bouillon-agar; read-out: Minimum Inhibitory Concentration
# In short: as §1
# [7] = test system: Klebsiella pneumoniae PCI-602; assay: Antibacterial activity, agar-dilution MIC, organism No. 7; settings: Klebsiella pneumoniae, PCI602; Organism No. 7, bouillon-agar; read-out: Minimum Inhibitory Concentration
# In short: as §1
# [8] = test system: Salmonella typhimurium IID 971; assay: Antibacterial activity, agar-dilution MIC, organism No. 8; settings: Salmonella enterica; Organism No. 8, bouillon-agar; read-out: Minimum Inhibitory Concentration
# In short: as §1
# [9] = test system: Salmonella typhi 901; assay: Antibacterial activity, agar-dilution MIC, organism No. 9; settings: Salmonella enterica, TYPHI, read-out: Minimum Inhibitory Concentration
# In short: as §1
# [10] = test system: Salmonella paratyphi-A 1015; assay: Antibacterial activity, agar-dilution MIC, organism No. 10; settings: Salmonella enterica, PARATYPHI, read-out: Minimum Inhibitory Concentration
# In short: as §1
# [11] = test system: Salmonella shottmuelleri 8006; assay: Antibacterial activity, agar-dilution MIC, organism No. 11; settings: Salmonella, 8006; Organism No. 11, bouillon-agar; read-out: Minimum Inhibitory Concentration
# In short: as §1
# [12] = test system: Salmonella enteritidis G 14; assay: Antibacterial activity, agar-dilution MIC, organism No. 12; settings: Salmonella enterica, ENTERITIDIS; Organism No. 12, bouillon-agar; read-out: Minimum Inhibitory Concentration
# In short: as §1
# [13] = test system: Serratia marcescens IAM 1184; assay: Antibacterial activity, agar-dilution MIC, organism No. 13; settings: Serratia marcescens, IAM1184; Organism No. 13, bouillon-agar; read-out: Minimum Inhibitory Concentration
# Excerpt: Agar-dilution method was used for determination of the antibacterial activity and antifungal activity while using bouillon-agar culture medium, and the minimum inhibitory concentration of the specimen was expressed by μg/ml of the culture medium.
# [14] = test system: Bacillus subtilis ATCC 6633; assay: Antibacterial activity, agar-dilution MIC, organism No. 14; settings: Bacillus subtilis, ATCC6633; Organism No. 14, bouillon-agar; read-out: Minimum Inhibitory Concentration
# In short: as §1
# [15] = test system: Pseudomonas aeruginosa IFO 3445; assay: Antibacterial activity, agar-dilution MIC, organism No. 15; settings: Pseudomonas aeruginosa, IFO3445; Organism No. 15, bouillon-agar; read-out: Minimum Inhibitory Concentration
# In short: as §1
# [16] = test system: Pseudomonas aeruginosa NCTC 10490; assay: Antibacterial activity, agar-dilution MIC, organism No. 16; settings: Pseudomonas aeruginosa, NCTC10490; Organism No. 16, bouillon-agar; read-out: Minimum Inhibitory Concentration
# In short: as §1
# [17] = test system: Pseudomonas aeruginosa PAO 1; assay: Antibacterial activity, agar-dilution MIC, organism No. 17; settings: Pseudomonas aeruginosa, PAO1; Organism No. 17, bouillon-agar; read-out: Minimum Inhibitory Concentration
# In short: as §1
# [18] = test system: Proteus morganii IFO 3848; assay: Antibacterial activity, agar-dilution MIC, organism No. 18; settings: Morganella morganii, IFO3848; Organism No. 18, bouillon-agar; read-out: Minimum Inhibitory Concentration
# In short: as §1
# [19] = test system: Proteus mirabilis IFO 3849; assay: Antibacterial activity, agar-dilution MIC, organism No. 19; settings: Proteus mirabilis, IFO3849; Organism No. 19, bouillon-agar; read-out: Minimum Inhibitory Concentration
# In short: as §1
# [20] = test system: Proteus vulgaris OX-19; assay: Antibacterial activity, agar-dilution MIC, organism No. 20; settings: Proteus vulgaris, OX19; Organism No. 20, bouillon-agar; read-out: Minimum Inhibitory Concentration
# In short: as §1
# [21] = test system: Proteus vulgaris HX-19; assay: Antibacterial activity, agar-dilution MIC, organism No. 21; settings: Proteus vulgaris, HX19; Organism No. 21, bouillon-agar; read-out: Minimum Inhibitory Concentration
# In short: as §1
# [22] = test system: Proteus rettgeri IFO 3850; assay: Antibacterial activity, agar-dilution MIC, organism No. 22; settings: Providencia rettgeri, IFO3850; Organism No. 22, bouillon-agar; read-out: Minimum Inhibitory Concentration
# In short: as §1
# [23] = test system: Enterobacter aerogenes ATCC 13048; assay: Antibacterial activity, agar-dilution MIC, organism No. 23; settings: Klebsiella aerogenes, ATCC13048; Organism No. 23, bouillon-agar; read-out: Minimum Inhibitory Concentration
# In short: as §1
# [24] = test system: Enterobacter cloacae 963; assay: Antibacterial activity, agar-dilution MIC, organism No. 24; settings: Enterobacter cloacae, 963; Organism No. 24, bouillon-agar; read-out: Minimum Inhibitory Concentration
# In short: as §1
# [25] = test system: Micrococcus luteus ATCC 9341; assay: Antibacterial activity, agar-dilution MIC, organism No. 25; settings: Micrococcus luteus, ATCC9341; Organism No. 25, bouillon-agar; read-out: Minimum Inhibitory Concentration
# In short: as §1
# [26] = test system: Candida albicans IAM 4905; assay: Antifungal activity, agar-dilution MIC, organism No. 29; settings: Candida albicans, IAM4905; Organism No. 29, bouillon-agar; read-out: Minimum Inhibitory Concentration
# In short: as §1
# [27] = test system: Aspergillus niger IFO 6342; assay: Antifungal activity, agar-dilution MIC, organism No. 30; settings: Aspergillus niger, IFO6342; Organism No. 30, bouillon-agar; read-out: Minimum Inhibitory Concentration
# In short: as §1
compound,measurement,setting,value
[C-]#[N+]C12CC3(/C=C/C(=O)Nc4nc5ccccc5s4)OC3C1O2 (stereo not drawn) [compound 70],MIC,[1],0.39 µg/mL
same,MIC,[2],0.78 µg/mL
same,MIC,[3],0.39 µg/mL
same,MIC,[4],1.56 µg/mL
same,MIC,[5],> 200 µg/mL
same,MIC,[6],> 200 µg/mL
same,MIC,[7],1.56 µg/mL
same,MIC,[8],> 200 µg/mL
same,MIC,[9],> 200 µg/mL
same,MIC,[10],3.13 µg/mL
same,MIC,[11],> 200 µg/mL
same,MIC,[12],> 200 µg/mL
same,MIC,[13],> 200 µg/mL
same,MIC,[14],3.13 µg/mL
same,MIC,[15],> 200 µg/mL
same,MIC,[16],> 200 µg/mL
same,MIC,[17],> 200 µg/mL
same,MIC,[18],6.25 µg/mL
same,MIC,[19],> 200 µg/mL
same,MIC,[20],1.56 µg/mL
same,MIC,[21],1.56 µg/mL
same,MIC,[22],> 200 µg/mL
same,MIC,[23],> 200 µg/mL
same,MIC,[24],> 200 µg/mL
same,MIC,[25],> 200 µg/mL
same,MIC,[26],1.56 µg/mL
same,MIC,[27],6.25 µg/mL
